Test results as given in patent US11229633B2, “Arimoclomol formulation” (Orphazyme A/S, priority 2014, dated 2022).
Entries after “also recorded” stand apart in the source; their conditions may differ.

Legend:
[1] = Solubility of test article in water and methanol; format: physicochemical; conditions: 25° C.
[2] = molecular target: T1, OATP1B1 (Homo sapiens, UniProt Q9Y6L6); assay: Uptake transporter inhibition assay, OATP1B1; format: in vitro ADME; design: expressed in transfected cells; host or cells: HEK293 (protocol UPT-HEK293-OATP1B1-E217βG; control: mock-transfected HEK293 FT); key to maximum inhibition: NIO: No interaction observed; conditions: for maximum inhibition: 0.3-300 μM
T1 sequence (Q9Y6L6 1-691): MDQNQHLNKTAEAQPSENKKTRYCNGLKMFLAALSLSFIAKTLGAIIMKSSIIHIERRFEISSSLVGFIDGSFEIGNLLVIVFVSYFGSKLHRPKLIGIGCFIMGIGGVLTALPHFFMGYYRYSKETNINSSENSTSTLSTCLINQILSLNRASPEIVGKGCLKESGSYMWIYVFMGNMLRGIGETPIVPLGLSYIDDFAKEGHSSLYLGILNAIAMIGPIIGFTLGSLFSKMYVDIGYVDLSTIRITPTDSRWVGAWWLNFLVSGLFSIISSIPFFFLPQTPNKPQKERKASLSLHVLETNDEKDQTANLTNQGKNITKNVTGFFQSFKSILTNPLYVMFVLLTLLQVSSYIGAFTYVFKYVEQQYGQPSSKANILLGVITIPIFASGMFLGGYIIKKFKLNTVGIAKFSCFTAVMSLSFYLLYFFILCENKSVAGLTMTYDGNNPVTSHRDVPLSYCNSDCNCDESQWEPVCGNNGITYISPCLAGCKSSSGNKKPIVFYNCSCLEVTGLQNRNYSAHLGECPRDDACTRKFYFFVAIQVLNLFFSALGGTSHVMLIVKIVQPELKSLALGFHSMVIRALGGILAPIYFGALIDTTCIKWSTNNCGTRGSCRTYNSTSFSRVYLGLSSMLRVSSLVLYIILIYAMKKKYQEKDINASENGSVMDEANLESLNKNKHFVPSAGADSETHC
Description: Uptake experiments were performed using CHO, MDCKII, or HEK293 cells stably expressing the respective uptake transporters.
Cells were cultured at 37±1° C. in an atmosphere of 95:5 air:CO2 and were plated onto standard 96-well tissue culture plates at the cell number described in table 4.
Before the experiment, the medium was removed and the cells were washed twice with 100 μl of HK buffer at pH 7.4 (prepared from Sigma chemicals, Sigma-Aldrich, St Louis, Mo.). Uptake experiments were carried out at 37±1° C. in 50 μl of HK buffer (pH 7.4) containing the probe substrate and the TA or vehicle control (water).
After the experiment, cells were washed twice with ice cold, 100 μl of HK buffer and lysed with 50 μl of 0.1 M NaOH (1 mM CaCl2) in 5% SDS in the case of OATP1B3). Fluo-3 transport (OATP1B3) was determined by measuring fluorescence using 485 nm and 520 nm as the excitation and emission wavelengths, respectively. Radiolabelled probe substrate transport was determined by measuring an aliquot (35 μl) from each well for liquid scintillation counting.
Uptake of the probe substrate in control cells provided background activity values for all data points. Incubation without TA or reference inhibitor (solvent only) provided 100% activity values. A reference inhibitor served as positive control for inhibition.
The amount of translocated probe substrate was determined for each well in cpm or RFU. Relative activities were calculated from the equation:
[formula] A: amount of translocated substrate in the presence of TA in transfected cells B: amount of translocated substrate in the presence of TA in control cells C: amount of translocated substrate in the presence of solvent in transfected cells D: amount of translocated substrate in the presence of solvent in control cells Calculation of Fold Accumulation Values
In uptake transporter inhibition assays, the IC50 (μM) was calculated, where applicable. […]

## [O-][n+]1cccc(C(Cl)=NOCC(O)CN2CCCCC2)c1 (centres unmarked) [Arimoclomol, N-[2-hydroxy-3-(1-piperidinyl)-propoxy]-pyridine-1-oxide-3-carboximidoyl chloride]
[1]; methanol
  Solubility: 0.4 g/100 mL
[1]; water
  Solubility: 14 g/100 mL
[2]; Table 2
  maximum inhibition: NIO
[2]; Table 5
  maximum inhibition: NIO
[2]; applied concentrations
  Influence on OATP1B1-mediated probe substrate accumulation (in words): did not influence; also recorded: not an inhibitor
